From ChEMBL document CHEMBL1201862, “PubChem BioAssay data set” (2004)
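Dose response: 5 concentrations. Exposure: 48 h. Format: 96-well plates. Endpoint: linear interpolation; highest concentration if not reached. GI50 is the concentration that inhibits growth by half.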 Activity calls are given as the source filed them. Rule as the data show it: active = GI50 up to about 1.1 µM and inactive = higher.

How the values were obtained:
Experiment in all cases: growth of human tumour cells (NCI), 48 h
IGROV-1 = tested on: IGROV-1
HOP-62 = tested on: HOP-62
K562 = tested on: K562
HCT-15 = tested on: HCT-15
SF-539 = tested on: SF-539
TK-10 = tested on: TK-10
EKVX = tested on: EKVX
OVCAR-4 = tested on: OVCAR-4
Hs-578T = tested on: Hs-578T
SK-OV-3 = tested on: SK-OV-3
MOLT-4 = tested on: MOLT-4
MCF7 = tested on: MCF7
U-251 = tested on: U-251
OVCAR-8 = tested on: OVCAR-8
A498 = tested on: A498
M14 = tested on: M14
OVCAR-5 = tested on: OVCAR-5
CCRF-CEM = tested on: CCRF-CEM
NCI-H23 = tested on: NCI-H23
NCI-H226 = tested on: NCI-H226

Row | SMILES | GI50 (IGROV-1) | GI50 (HOP-62) | GI50 (K562) | GI50 (HCT-15) [µM] | GI50 (SF-539) | GI50 (TK-10) | GI50 (EKVX) | GI50 (OVCAR-4) | GI50 (Hs-578T) | GI50 (SK-OV-3) | GI50 (MOLT-4) | GI50 (MCF7) | GI50 (U-251) | GI50 (OVCAR-8) | GI50 (A498) | GI50 (M14) | GI50 (OVCAR-5) | GI50 (CCRF-CEM) | GI50 (NCI-H23) | GI50 (NCI-H226)
1 | O=C(O)CCC1COc2ccccc2O1 (stereo unspecified) | > 10 µM (inactive) | > 10 µM (inactive) | > 10 µM (inactive) | > 10 | > 10 µM (inactive) | > 10 µM (inactive) | > 10 µM (inactive) | > 10 µM (inactive) | > 10 µM (inactive) | > 10 µM (inactive) | > 10 µM (inactive) | > 10 µM (inactive) | > 10 µM (inactive) | > 10 µM (inactive) | > 10 µM (inactive) | > 10 µM (inactive) | > 10 µM (inactive) | > 10 µM (inactive) | > 10 µM (inactive) | > 10 µM (inactive)
2 | O=C1NC(=S)NC(=O)C1=C(O)Nc1ccccc1 | 32 µM (inactive) | 23.2 µM (inactive) | 27.7 µM (inactive) | 14.2 | 23.8 µM (inactive) | 53.6 µM (inactive) | 35.7 µM (inactive) | 34.6 µM (inactive) | 20.2 µM (inactive) | 38.9 µM (inactive) | 10.3 µM (inactive) | 19.1 µM (inactive) | 27.5 µM (inactive) | 27.8 µM (inactive) | 28.6 µM (inactive) | 36.2 µM (inactive) | 47.2 µM (inactive) | 16.4 µM (inactive) | 26.3 µM (inactive) | 30.5 µM (inactive)
3 | COc1nc2ccc(Cl)c(C(O)c3ccccc3)c2nc1OC (stereo unspecified) | 24.8 µM (inactive) | 16.5 µM (inactive) | 18.6 µM (inactive) | 20.6 | 18.3 µM (inactive) | 37.2 µM (inactive) | 18.2 µM (inactive) | 26.6 µM (inactive) | 14.9 µM (inactive) | – | 17.6 µM (inactive) | 29.7 µM (inactive) | 25.3 µM (inactive) | 29 µM (inactive) | 18.6 µM (inactive) | 17.2 µM (inactive) | 29 µM (inactive) | 12.6 µM (inactive) | 17.2 µM (inactive) | 16.3 µM (inactive)
4 | COc1c2c3c4c(c(OC)c(=O)c5c(O)cc(OC)c(c6c(OC)cc(O)c(c1=O)c63)c54)C(C(C)O)C2C(C)=O (stereo unspecified) | 0.445 µM (active) | 0.177 µM (active) | 0.234 µM (active) | 0.652 | 0.296 µM (active) | 0.581 µM (active) | 0.482 µM (active) | 0.46 µM (active) | 0.593 µM (active) | 0.826 µM (active) | 0.279 µM (active) | 0.603 µM (active) | 0.299 µM (active) | 0.321 µM (active) | 0.628 µM (active) | 0.288 µM (active) | 0.603 µM (active) | 0.269 µM (active) | 0.331 µM (active) | 0.528 µM (active)
5 | COC(=O)C1(N2CCOCC2)CCC([C@@H](c2ccccc2)C(C)[N+](=O)[O-])C1 (stereo partly specified) | – | > 100 µM (inactive) | 51.6 µM (inactive) | 66.8 | > 100 µM (inactive) | > 100 µM (inactive) | > 100 µM (inactive) | 55.5 µM (inactive) | > 100 µM (inactive) | > 100 µM (inactive) | > 100 µM (inactive) | 21.9 µM (inactive) | > 100 µM (inactive) | > 100 µM (inactive) | > 100 µM (inactive) | > 100 µM (inactive) | > 100 µM (inactive) | 0.603 µM (active) | > 100 µM (inactive) | > 100 µM (inactive)
6 | CSC1SCC2C(=O)N(C)C3(CC3C)C(=O)OCC(NC(=O)c3nc4ccccc4cc3O)C(=O)NC(C)C(=O)N(C)C1C(=O)N(C)C1(CC1C)C(=O)OCC(NC(=O)c1nc3ccccc3cc1O)C(=O)NC(C)C(=O)N2C (stereo unspecified) | < 0.0001 µM (active) | < 0.0001 µM (active) | < 0.0001 µM (active) | 0.0146 | < 0.0001 µM (active) | < 0.0001 µM (active) | 0.1 µM (active) | < 0.0001 µM (active) | < 0.0001 µM (active) | < 0.0001 µM (active) | < 0.0001 µM (active) | < 0.0001 µM (active) | < 0.0001 µM (active) | < 0.0001 µM (active) | < 0.0001 µM (active) | < 0.0001 µM (active) | < 0.0001 µM (active) | < 0.0001 µM (active) | < 0.0001 µM (active) | < 0.0001 µM (active)
7 | COC(=O)/C(=C\c1cn(C(C)=O)c2ccccc12)P(=O)(OC)OC | 13.3 µM (inactive) | 14.9 µM (inactive) | 25.1 µM (inactive) | 14.5 | 16 µM (inactive) | 20.8 µM (inactive) | 17 µM (inactive) | 14.6 µM (inactive) | 27 µM (inactive) | 19 µM (inactive) | 34.8 µM (inactive) | 13.6 µM (inactive) | 15.8 µM (inactive) | 22.5 µM (inactive) | 17.3 µM (inactive) | 15.2 µM (inactive) | – | 14.6 µM (inactive) | 14.8 µM (inactive) | 38.4 µM (inactive)
8 | COc1ccc(/C=C2\CCC(C)C3C2=NN(c2ccccc2)C3c2ccc(OC)c(OC)c2)cc1OC (stereo unspecified) | 2.32 µM (inactive) | – | 2.01 µM (inactive) | 3.01 | 2.48 µM (inactive) | 3.22 µM (inactive) | 1.74 µM (inactive) | – | 7.29 µM (inactive) | 4.23 µM (inactive) | 2.7 µM (inactive) | 3.21 µM (inactive) | 4.33 µM (inactive) | 3.28 µM (inactive) | 3.42 µM (inactive) | 4.66 µM (inactive) | 2.65 µM (inactive) | 1.87 µM (inactive) | 4.21 µM (inactive) | 2.69 µM (inactive)
9 | CC1NC(=O)c2c(-c3ccccc3)nn(-c3ccccc3)c2NC1=O (stereo unspecified) | > 100 µM (inactive) | > 100 µM (inactive) | > 100 µM (inactive) | > 100 | – | > 100 µM (inactive) | > 100 µM (inactive) | > 100 µM (inactive) | > 100 µM (inactive) | > 100 µM (inactive) | > 100 µM (inactive) | > 100 µM (inactive) | > 100 µM (inactive) | > 100 µM (inactive) | > 100 µM (inactive) | > 100 µM (inactive) | > 100 µM (inactive) | > 100 µM (inactive) | > 100 µM (inactive) | > 100 µM (inactive)
10 | C1=C\SS/C=C\SS/1 | 16.6 µM (inactive) | 54.6 µM (inactive) | 26.1 µM (inactive) | 14.4 | – | 40.7 µM (inactive) | 46.8 µM (inactive) | 46.8 µM (inactive) | > 100 µM (inactive) | > 100 µM (inactive) | 12.9 µM (inactive) | 15.9 µM (inactive) | 34.8 µM (inactive) | 17.1 µM (inactive) | > 100 µM (inactive) | 29.5 µM (inactive) | 35.3 µM (inactive) | 2.28 µM (inactive) | 40.9 µM (inactive) | > 100 µM (inactive)
11 | O=C1NNC2NC(=O)C3(NN2C1=O)c1ccccc1-c1ccccc13 (stereo unspecified) | > 100 µM (inactive) | > 100 µM (inactive) | > 100 µM (inactive) | > 100 | > 100 µM (inactive) | > 100 µM (inactive) | > 100 µM (inactive) | > 100 µM (inactive) | > 100 µM (inactive) | > 100 µM (inactive) | – | > 100 µM (inactive) | > 100 µM (inactive) | > 100 µM (inactive) | > 100 µM (inactive) | > 100 µM (inactive) | > 100 µM (inactive) | > 100 µM (inactive) | > 100 µM (inactive) | > 100 µM (inactive)
12 | CC12CCCCC1=C(F)C(F)(F)S2 (stereo unspecified) | > 71.9 µM (inactive) | 63.8 µM (inactive) | 17.5 µM (inactive) | 32.7 | > 70.6 µM (inactive) | 39.2 µM (inactive) | > 78.7 µM (inactive) | 48.3 µM (inactive) | > 21.5 µM (inactive) | > 100 µM (inactive) | 11.3 µM (inactive) | 34.4 µM (inactive) | 98.6 µM (inactive) | 35.8 µM (inactive) | > 100 µM (inactive) | 37.6 µM (inactive) | 62.5 µM (inactive) | 8.65 µM (inactive) | 52.1 µM (inactive) | > 100 µM (inactive)
13 | CC(=O)OC1c2ccccc2CC2(OC(C)=O)c3ccccc3C12 (stereo unspecified) | > 100 µM (inactive) | > 100 µM (inactive) | > 100 µM (inactive) | > 100 | > 100 µM (inactive) | > 100 µM (inactive) | > 100 µM (inactive) | > 100 µM (inactive) | > 100 µM (inactive) | > 100 µM (inactive) | > 100 µM (inactive) | 80.4 µM (inactive) | > 100 µM (inactive) | > 100 µM (inactive) | > 100 µM (inactive) | > 100 µM (inactive) | > 100 µM (inactive) | > 100 µM (inactive) | > 100 µM (inactive) | > 100 µM (inactive)
14 | NC(=S)N/N=C/C1NCCC2CCCCC21 (stereo unspecified) | 0.689 µM (active) | 0.0938 µM (active) | 0.617 µM (active) | 0.0895 | 0.0272 µM (active) | 0.33 µM (active) | 0.611 µM (active) | 1.73 µM (inactive) | 1.15 µM (inactive) | 0.37 µM (active) | 0.257 µM (active) | 0.59 µM (active) | 0.136 µM (active) | 0.149 µM (active) | 0.17 µM (active) | 0.17 µM (active) | 0.796 µM (active) | 0.31 µM (active) | 0.133 µM (active) | 0.314 µM (active)
15 | Cc1cccc(-c2cc(O)c3ccc(C)nc3n2)c1 | 0.601 µM (active) | 0.546 µM (active) | 0.0993 µM (active) | 0.194 | 0.338 µM (active) | 3.3 µM (inactive) | – | 10 µM (inactive) | 0.337 µM (active) | 0.656 µM (active) | 0.421 µM (active) | 0.443 µM (active) | 0.389 µM (active) | 0.8 µM (active) | 0.644 µM (active) | 0.226 µM (active) | 0.723 µM (active) | 0.354 µM (active) | 0.643 µM (active) | 0.367 µM (active)
